Experimental data as given in patent US20060142390A1, “Treatment for severe melancholic depression” (priority 2004, published 2006).

Assays:
[1] = system: outpatients with a new episode of depression; assay: Study of 96% pure EPA (ethyl ester) as monotherapy versus placebo in depression; Bech Scale and depression sub score of the HDRS; type: in vivo, human; design: key to Bech score, Mean: Bech score = sum of 6 HDRS items; key to Change of Bech score: reduction of Bech score (sum of 6 HDRS items) over trial; key to Depression subscore (item1, item2, item3), Mean / Depression subscore, Mean: sum of HDRS item 1, item 2 and item 3; details: for Bech score, Mean / Depression subscore (item1, item2, item3), Mean / Depression subscore, Mean: EPA any dose; for Depression subscore (item1, item2, item3), Mean: ITT
Experimental: (§1) A study was performed on outpatients with a new episode of depression using 96% pure EPA, as the ethyl ester, as a monotherapy for treatment of depression. The primary objective was to examine the effects of 96% pure EPA versus placebo on the Hamilton Depression Rating Scale (HDRS) in patients with a new or recurrent episode of depression. • 1. The Bech Scale (sum of 6 items as specified) was used as the instrument to measure efficacy across all subjects, i.e. the reduction of the Bech Score in the course of the trial, by comparing this change in the active groups with that in the placebo group. The Bech Scale consists of 6 items from the original HDRS: depression, guilt, work/interest, psychomotor retardation, anxiety psychic and general somatic symptoms (loss of energy, tiredness) and has been successfully used in several trials (Bech 2002 Acta Psychiatry Scand vol 106; p 252-264). • 2. For the differentiation of the subgroups of subjects, item 6 (early morning awakening), item 12 (loss of appetite) and item 16 (weight loss) were chosen from the HDRS, to identify subjects suffering from severe melancholic features. These items are also related to the definition of the melancholia specifier according the DSM-IV (American Psychiatric Association: 4th Edition, 2000). This specification was only done once, i.e. at the baseline visit (v1). Patients with a score of 2 in any of these 3 items were regarded as having severe melancholic items and therefore belonging the severe melancholic group, the others were regarded as not belonging to this group. The characteristics could change in the course of treatment, therefore it was important that only the condition at baseline was used for the definition. Results: An analysis of a less frequently used, but pre-specified sub score, i.e. the depression sub score, which is the sum of item 1 (depression), item 2 (guilt) and item 3 (suicidality), confirmed the findings.

[2] = system: non-responsive patients on standard therapy; assay: Earlier trials of 96% pure EPA as add on to standard therapy in non-responsive patients; Bech score over time; type: in vivo, human; design: key to Bech score, Mean: Bech score = sum of 6 HDRS items; details: for Bech score, Mean: Add on therapy
Source text: as §1, with “The” for “A study was performed on outpatients with a new episode of depression using 96% pure EPA, as the ethyl ester, as a monotherapy for treatment of depression. The”, “Results:” for “Results: An analysis of a less frequently used, but pre-specified sub score, i.e. the depression sub score, which is the sum of item 1 (depression), item 2 (guilt) and item 3 (suicidality), confirmed the findings.”
The following presents the Bech-Score over time in the severe melancholic groups, contrasted with those subjects showing no severe melancholic signs.

For `CC/C=C\C/C=C\C/C=C\C/C=C\C/C=C\CCCC(=O)O` [EPA, all cis (or all z) 5,8,11,14,17-eicosapentaenoic acid], the “Change of Bech score compared with placebo” value ([1]; ITT group) was “no significant difference”, the “Change of Bech score” value ([1]; ITT group, all subjects, placebo changed by 3.9 points) was 4.0 points and the “Bech score, Mean” value ([1]; ITT group, Bech l2, after 2 weeks, last observation carried forward) was 8.1. For the same compound, the “Bech score, Mean” value ([1]; ITT group, Bech l4, after 4 weeks, last observation carried forward) was 6.6, the “Bech score, Mean” value ([1]; ITT group, Bech l6, after 6 weeks, last observation carried forward) was 6.3 and the “Bech score, Mean” value ([1]; ITT group, Bech v1 = baseline week 1) was 10.3. For the same compound, the “Depression subscore (item1, item2, item3), Mean” value ([1]; baseline) was 4.3, the “Depression subscore (item1, item2, item3), Mean” value ([1]; outcome, LOCF) was 2.3 and the “Bech score, Mean” value ([1]; No severe melancholic signs, Bech l2 (week 2)) was 8.8. For the same compound, the “Bech score, Mean” value ([1]; No severe melancholic signs, Bech l4 (week 4)) was 6.3, the “Bech score, Mean” value ([1]; No severe melancholic signs, Bech l6 (week 6)) was 6.1 and the “Bech score, Mean” value ([1]; No severe melancholic signs, Bech v1 (baseline)) was 10.2. The “Depression subscore, Mean” value ([1]; No severe melancholic signs, baseline) was 4.4, the “Depression subscore, Mean” value ([1]; No severe melancholic signs, outcome) was 2.4 and the “Bech score, Mean” value ([1]; With severe melancholic signs, Bech l2 (week 2)) was 7.3. For the same compound, the “Bech score, Mean” value ([1]; With severe melancholic signs, Bech l4 (week 4)) was 7.0, the “Bech score, Mean” value ([1]; With severe melancholic signs, Bech l6 (week 6)) was 6.5 and the “Bech score, Mean” value ([1]; With severe melancholic signs, Bech v1 (baseline)) was 10.3. For the same compound, the “Depression subscore, Mean” value ([1]; With severe melancholic signs, baseline) was 4.1, the “Depression subscore, Mean” value ([1]; With severe melancholic signs, outcome) was 2.3 and the “Change of Bech score compared with placebo” value ([1]; non-severe melancholic group) was “not significantly different”. The “Change of Bech score” value ([1]; non-severe melancholic group, placebo change 5.0) was 4.1, the “Depression sub score outcome compared with placebo (ANVOVA, baseline as covariate)” value ([1]; patients with severe melancholic signs) was “significant superiority” and the “Improvement of depression sub score” value ([1]; patients with severe melancholic signs, placebo 0.7 points, p<0.05) was 1.8 points. The “Improvement of Bech score” value ([1]; patients with severe melancholic signs, placebo 2.9 points, p<0.05) was 3.8 points, the “Bech score, Mean” value ([2]; no severe melancholic signs, Bech l2 (week 2)) was 8.3 and the “Bech score, Mean” value ([2]; no severe melancholic signs, Bech l4 (week 4)) was 7.3. The “Bech score, Mean” value ([2]; no severe melancholic signs, Bech l8 (week 8)) was 6.7, the “Bech score, Mean” value ([2]; no severe melancholic signs, Bech l12 (week 12)) was 6.7 and the “Bech score, Mean” value ([2]; no severe melancholic signs, Bech v1 (baseline)) was 9.8. The “Bech score, Mean” value ([2]; with severe melancholic signs, Bech l2 (week 2)) was 8.1, the “Bech score, Mean” value ([2]; with severe melancholic signs, Bech l4 (week 4)) was 6.8 and the “Bech score, Mean” value ([2]; with severe melancholic signs, Bech l8 (week 8)) was 5.9. The “Bech score, Mean” value ([2]; with severe melancholic signs, Bech l12 (week 12)) was 5.3, the “Bech score, Mean” value ([2]; with severe melancholic signs, Bech v1 (baseline)) was 9.0 and the “Improvement of Bech score” value ([2]; add on therapy, patients with severe melancholic features, 12 weeks, placebo 2.8 points, p<0.05) was 3.7 points. For the same compound, the “Bech score outcome at 12 weeks compared with placebo (ANVOVA, baseline as covariate, last observation carried forward)” value ([2]; add on therapy, patients with severe melancholic signs) was “statistically superior”.
